Results published in article PMC5218480 (PLoS ONE, 2017).

System: MV-4-11 cells
Assay: Gene expression microarray analysis (Affymetrix PrimeView) and GSEA
Assay type: cell-based, human
Parameters: RFU PODN (11730768_x_at) / Fold change /veh PODN (11730768_x_at) / RFU LINC00158 (11744669_a_at) / Fold change /veh LINC00158 (11744669_a_at) / RFU DUSP10 (11751237_a_at) / Fold change /veh DUSP10 (11751237_a_at) / RFU ID3 (11757404_x_at) / Fold change /veh ID3 (11757404_x_at) / RFU PLEKHG5 (11737974_s_at) / Fold change /veh PLEKHG5 (11737974_s_at) / RFU LRRC4B (11730491_at) / Fold change /veh LRRC4B (11730491_at) / RFU GIMAP4 (11747438_a_at) / Fold change /veh GIMAP4 (11747438_a_at) / RFU KRT8 (11758183_x_at) / Fold change /veh KRT8 (11758183_x_at) / RFU CNN1 (11734310_a_at) / Fold change /veh CNN1 (11734310_a_at) / RFU VPS37D (11726825_at) / Fold change /veh VPS37D (11726825_at) / RFU C10orf10 (11716522_x_at) / Fold change /veh C10orf10 (11716522_x_at) / RFU KIR2DL2 /// KIR2DL4 /// KIR2DL5A /// KIR2DL5B /// KIR2DS1 /// KIR2DS2 /// KIR2DS3 /// KIR2DS4 /// KIR3DL3 /// KIR3DL3 /// KIR3DS1 (11738374_at) / Fold change /veh KIR2DL2 /// KIR2DL4 /// KIR2DL5A /// KIR2DL5B /// KIR2DS1 /// KIR2DS2 /// KIR2DS3 /// KIR2DS4 /// KIR3DL3 /// KIR3DL3 /// KIR3DS1 (11738374_at) / RFU C1QL1 (11718748_at) / Fold change /veh C1QL1 (11718748_at) / RFU TMPRSS4 (11747572_a_at) / Fold change /veh TMPRSS4 (11747572_a_at) / RFU HAMP (11756126_x_at) / Fold change /veh HAMP (11756126_x_at) / RFU RNFT2 (11725882_a_at) / Fold change /veh RNFT2 (11725882_a_at) / RFU NR4A2 (11747474_a_at) / Fold change /veh NR4A2 (11747474_a_at) / RFU ABCC12 (11746883_a_at) / Fold change /veh ABCC12 (11746883_a_at) / RFU TMEM136 (11760407_x_at) / Fold change /veh TMEM136 (11760407_x_at) / RFU CLDN22 /// WWC2 (11732394_at) / Fold change /veh CLDN22 /// WWC2 (11732394_at) / RFU HLA-DPB1 (11760878_x_at) / Fold change /veh HLA-DPB1 (11760878_x_at) / RFU SPINT1 (11716480_a_at) / Fold change /veh SPINT1 (11716480_a_at) / RFU GAP43 (11754022_s_at) / Fold change /veh GAP43 (11754022_s_at) / RFU A4GNT (11735810_at) / Fold change /veh A4GNT (11735810_at) / RFU PRB3 (11715151_x_at) / Fold change /veh PRB3 (11715151_x_at) / RFU TUBB4B (11761932_at) / Fold change /veh TUBB4B (11761932_at) / RFU CAPN14 (11732068_a_at) / Fold change /veh CAPN14 (11732068_a_at) / RFU TMCC2 (11721928_a_at) / Fold change /veh TMCC2 (11721928_a_at) / RFU IRGQ (11745062_a_at) / Fold change /veh IRGQ (11745062_a_at) / RFU FAM174B (11720279_a_at) / Fold change /veh FAM174B (11720279_a_at) / RFU TMPRSS4 (11748680_a_at) / Fold change /veh TMPRSS4 (11748680_a_at) / RFU FAM212B (11763350_a_at) / Fold change /veh FAM212B (11763350_a_at) / RFU PLEKHG5 (11743358_a_at) / Fold change /veh PLEKHG5 (11743358_a_at) / RFU ZSCAN30 (11745921_a_at) / Fold change /veh ZSCAN30 (11745921_a_at) / RFU CMKLR1 (11741424_a_at) / Fold change /veh CMKLR1 (11741424_a_at) / RFU LOC101060620 /// MAPK8IP1 (11723275_at) / Fold change /veh LOC101060620 /// MAPK8IP1 (11723275_at) / RFU SPTSSB (11747773_x_at) / Fold change /veh SPTSSB (11747773_x_at) / RFU PRSS12 (11739890_at) / Fold change /veh PRSS12 (11739890_at) / RFU BIN1 (11741810_x_at) / Fold change /veh BIN1 (11741810_x_at) / RFU WNT11 (11732464_a_at) / Fold change /veh WNT11 (11732464_a_at) / RFU C10orf10 (11716521_a_at) / Fold change /veh C10orf10 (11716521_a_at) / RFU C5orf56 (11738089_at) / Fold change /veh C5orf56 (11738089_at) / RFU CYB561 (11721691_x_at) / Fold change /veh CYB561 (11721691_x_at) / RFU ANKRD19P (11752326_a_at) / Fold change /veh ANKRD19P (11752326_a_at) / RFU OR2T12 /// OR2T33 /// OR2T8 (11738714_s_at) / Fold change /veh OR2T12 /// OR2T33 /// OR2T8 (11738714_s_at) / RFU VCAN (11748164_a_at) / Fold change /veh VCAN (11748164_a_at) / RFU JSRP1 (11732532_at) / Fold change /veh JSRP1 (11732532_at) / RFU KRTAP10-11 (11738290_x_at) / Fold change /veh KRTAP10-11 (11738290_x_at) / RFU MYO3A (11730013_a_at) / Fold change /veh MYO3A (11730013_a_at) / RFU EBF3 (11725865_a_at) / Fold change /veh EBF3 (11725865_a_at) / RFU CAMK2N1 (11719241_x_at) / Fold change /veh CAMK2N1 (11719241_x_at) / RFU C5orf56 (11738088_a_at) / Fold change /veh C5orf56 (11738088_a_at) / RFU OLFML3 (11715873_a_at) / Fold change /veh OLFML3 (11715873_a_at) / RFU LOC100653217 /// NTM (11731650_a_at) / Fold change /veh LOC100653217 /// NTM (11731650_a_at) / RFU MAPK11 (11762145_a_at) / Fold change /veh MAPK11 (11762145_a_at) / RFU FIZ1 (11724087_x_at) / Fold change /veh FIZ1 (11724087_x_at) / RFU OASL (11726364_x_at) / Fold change /veh OASL (11726364_x_at) / RFU SOX15 (11748057_x_at) / Fold change /veh SOX15 (11748057_x_at) / RFU CD79A (11719716_a_at) / Fold change /veh CD79A (11719716_a_at) / RFU HIST1H1D (11736915_at) / Fold change /veh HIST1H1D (11736915_at) / RFU CASKIN2 (11723855_a_at) / Fold change /veh CASKIN2 (11723855_a_at) / RFU LOC730098 (11760151_x_at) / Fold change /veh LOC730098 (11760151_x_at) / RFU OR4N2 (11742367_at) / Fold change /veh OR4N2 (11742367_at) / RFU PRRT2 (11749266_a_at) / Fold change /veh PRRT2 (11749266_a_at) / RFU SNX32 (11753110_a_at) / Fold change /veh SNX32 (11753110_a_at) / RFU CDHR5 (11726645_a_at) / Fold change /veh CDHR5 (11726645_a_at) / RFU RCAN1 (11760418_a_at) / Fold change /veh RCAN1 (11760418_a_at) / RFU FAM167A (11723789_a_at) / Fold change /veh FAM167A (11723789_a_at) / RFU FAM26E (11764081_at) / Fold change /veh FAM26E (11764081_at) / RFU ISYNA1 (11749810_s_at) / Fold change /veh ISYNA1 (11749810_s_at) / RFU ACY1 (11761880_at) / Fold change /veh ACY1 (11761880_at) / RFU 11764098_at / Fold change /veh 11764098_at / RFU SAMD14 (11745864_x_at) / Fold change /veh SAMD14 (11745864_x_at) / RFU NPB (11741838_a_at) / Fold change /veh NPB (11741838_a_at) / RFU TMPRSS6 (11731388_a_at) / Fold change /veh TMPRSS6 (11731388_a_at) / RFU KRTAP10-2 (11738614_at) / Fold change /veh KRTAP10-2 (11738614_at) / RFU ARHGAP8 /// PRR5-ARHGAP8 (11727945_x_at) / Fold change /veh ARHGAP8 /// PRR5-ARHGAP8 (11727945_x_at) / RFU KRTAP5-7 /// NADSYN1 (11734609_at) / Fold change /veh KRTAP5-7 /// NADSYN1 (11734609_at) / RFU RASL12 (11751679_a_at) / Fold change /veh RASL12 (11751679_a_at) / RFU CDKN2B (11736163_a_at) / Fold change /veh CDKN2B (11736163_a_at) / RFU PRF1 (11729649_at) / Fold change /veh PRF1 (11729649_at) / RFU, ZNF638 /// ZNF638-IT1 / Fold change vs veh, ZNF638 /// ZNF638-IT1 / RFU, PANK3 / Fold change vs veh, PANK3 / RFU, SH3YL1 / Fold change vs veh, SH3YL1 / RFU, ZEB2 / Fold change vs veh, ZEB2 / RFU, NRIP1 / Fold change vs veh, NRIP1 / RFU, PTTG1IP / Fold change vs veh, PTTG1IP / RFU, CAPN2 / Fold change vs veh, CAPN2 / RFU, MED14 / Fold change vs veh, MED14 / RFU, SNORA58 / Fold change vs veh, SNORA58 / RFU, C1orf63 / Fold change vs veh, C1orf63 / RFU, LRRFIP1 / Fold change vs veh, LRRFIP1 / RFU, NDUFAF7 / Fold change vs veh, NDUFAF7 / RFU, SLC12A2 / Fold change vs veh, SLC12A2 / RFU, IBTK / Fold change vs veh, IBTK / RFU, ESF1 / Fold change vs veh, ESF1 / Fold change vs veh, TMEM50B / RFU, TAOK1 / Fold change vs veh, TAOK1 / RFU, ACBD3 / Fold change vs veh, ACBD3 / RFU, TMA16 / Fold change vs veh, TMA16 / RFU, RWDD3 / Fold change vs veh, RWDD3 / RFU, BCAT1 / Fold change vs veh, BCAT1 / RFU, EDEM3 / Fold change vs veh, EDEM3 / RFU, TMEM33 / Fold change vs veh, TMEM33 / RFU, WDR75 / Fold change vs veh, WDR75 / RFU, AHCTF1 / Fold change vs veh, AHCTF1 / RFU, TFRC / Fold change vs veh, TFRC / RFU, ZDHHC17 / Fold change vs veh, ZDHHC17 / RFU, NOM1 / Fold change vs veh, NOM1 / RFU, ARL8B / Fold change vs veh, ARL8B / RFU, ZBTB11 / Fold change vs veh, ZBTB11 / RFU, TAMM41 / Fold change vs veh, TAMM41 / RFU, KIAA1704 /// LOC100996395 / Fold change vs veh, KIAA1704 /// LOC100996395 / RFU, ING1 / Fold change vs veh, ING1 / RFU, TRMT61B / Fold change vs veh, TRMT61B / RFU, FUBP3 / Fold change vs veh, FUBP3 / RFU, TP53 / Fold change vs veh, TP53 / RFU, TNKS2 / Fold change vs veh, TNKS2 / RFU, ZFP14 / Fold change vs veh, ZFP14 / RFU, ACTR2 / Fold change vs veh, ACTR2 / RFU, PPP3R1 / Fold change vs veh, PPP3R1 / RFU, PIK3R1 / Fold change vs veh, PIK3R1 / RFU, HNRNPA1 / Fold change vs veh, HNRNPA1 / RFU, RNF170 / Fold change vs veh, RNF170 / RFU, ZNF28 / Fold change vs veh, ZNF28 / RFU, RNGTT / Fold change vs veh, RNGTT / RFU, OGT / Fold change vs veh, OGT / RFU, BRD1 / Fold change vs veh, BRD1 / RFU, MARS / Fold change vs veh, MARS / RFU, ZNF655 / Fold change vs veh, ZNF655 / RFU, FAHD1 / Fold change vs veh, FAHD1 / RFU, BDP1 / Fold change vs veh, BDP1 / RFU, LRRCC1 / Fold change vs veh, LRRCC1 / RFU, ARID1A / Fold change vs veh, ARID1A / RFU, ZNF146 / Fold change vs veh, ZNF146 / RFU, ZNF330 / Fold change vs veh, ZNF330 / RFU, GPN3 / Fold change vs veh, GPN3 / RFU, C9orf123 / Fold change vs veh, C9orf123 / RFU, N4BP2L2 / Fold change vs veh, N4BP2L2 / RFU, ARFIP1 / Fold change vs veh, ARFIP1 / RFU, FAM179B / Fold change vs veh, FAM179B / RFU, BCL10 / Fold change vs veh, BCL10 / RFU, UHRF1BP1L / Fold change vs veh, UHRF1BP1L / RFU, BET1 / Fold change vs veh, BET1 / RFU, CNOT2 / Fold change vs veh, CNOT2 / RFU, ZNF268 / Fold change vs veh, ZNF268 / Fold change vs veh, ZNF507 / RFU, DGCR2 / Fold change vs veh, DGCR2 / RFU, WDSUB1 / Fold change vs veh, WDSUB1 / Fold change vs veh, HSP90B1 /// MIR3652 / RFU, ADSS / Fold change vs veh, ADSS / RFU, GK / Fold change vs veh, GK / RFU, ZNF148 / Fold change vs veh, ZNF148 / RFU, TAF9 / Fold change vs veh, TAF9 / RFU, SLC1A5 / Fold change vs veh, SLC1A5 / RFU, SLMO2 / Fold change vs veh, SLMO2 / RFU, ABCC4 / Fold change vs veh, ABCC4 / RFU, LOC101060439 /// RAP1B / Fold change vs veh, LOC101060439 /// RAP1B / RFU, RFX7 / Fold change vs veh, RFX7 / RFU, GTPBP10 / Fold change vs veh, GTPBP10 / RFU, CNEP1R1 / Fold change vs veh, CNEP1R1 / RFU, BIVM-ERCC5 /// ERCC5 / Fold change vs veh, BIVM-ERCC5 /// ERCC5 / RFU, ILF3 / Fold change vs veh, ILF3 / RFU 11762660_at / Fold change /veh 11762660_at / RFU VCAN (11757783_s_at) / Fold change /veh VCAN (11757783_s_at) / RFU DDX43 (11728927_at) / Fold change /veh DDX43 (11728927_at) / RFU KRT8 (11758188_x_at) / Fold change /veh KRT8 (11758188_x_at) / RFU NKD1 (11759106_at) / Fold change /veh NKD1 (11759106_at) / RFU SRD5A1 (11742802_a_at) / Fold change /veh SRD5A1 (11742802_a_at) / RFU TPSAB1 /// TPSB2 (11721975_s_at) / Fold change /veh TPSAB1 /// TPSB2 (11721975_s_at) / RFU GSTM3 (11746129_a_at) / Fold change /veh GSTM3 (11746129_a_at) / RFU IL23R (11737362_x_at) / Fold change /veh IL23R (11737362_x_at) / RFU TMEM51 (11727254_a_at) / Fold change /veh TMEM51 (11727254_a_at) / RFU PIWIL2 (11732686_x_at) / Fold change /veh PIWIL2 (11732686_x_at) / RFU ORM1 (11744905_x_at) / Fold change /veh ORM1 (11744905_x_at) / RFU CCDC152 (11743942_at) / Fold change /veh CCDC152 (11743942_at) / RFU ECM1 (11717891_a_at) / Fold change /veh ECM1 (11717891_a_at) / RFU IL23R (11748794_a_at) / Fold change /veh IL23R (11748794_a_at) / RFU TNFAIP8L3 (11732012_x_at) / Fold change /veh TNFAIP8L3 (11732012_x_at) / RFU MBOAT4 (11741988_at) / Fold change /veh MBOAT4 (11741988_at) / RFU 11764193_at / Fold change /veh 11764193_at / RFU TMEM53 (11763286_at) / Fold change /veh TMEM53 (11763286_at) / RFU MAGEB2 (11727129_at) / Fold change /veh MAGEB2 (11727129_at) / RFU TMEM200A (11744735_a_at) / Fold change /veh TMEM200A (11744735_a_at) / RFU CCDC152 (11751479_a_at) / Fold change /veh CCDC152 (11751479_a_at) / RFU FAM211A (11726209_a_at) / Fold change /veh FAM211A (11726209_a_at) / RFU RGS16 (11746705_a_at) / Fold change /veh RGS16 (11746705_a_at) / RFU VCAN (11755009_s_at) / Fold change /veh VCAN (11755009_s_at) / RFU RHOB (11743442_s_at) / Fold change /veh RHOB (11743442_s_at) / RFU RGS16 (11720943_a_at) / Fold change /veh RGS16 (11720943_a_at) / RFU RGS16 (11720944_at) / Fold change /veh RGS16 (11720944_at) / RFU, VPS4B / Fold change vs veh, VPS4B / RFU, CREB1 / Fold change vs veh, CREB1 / RFU, DNAJC13 / Fold change vs veh, DNAJC13 / RFU, GNAQ / Fold change vs veh, GNAQ / RFU, CDK5R1 / Fold change vs veh, CDK5R1 / RFU, ZRANB3 / Fold change vs veh, ZRANB3 / RFU, CUL4A / Fold change vs veh, CUL4A / RFU, CCNY / Fold change vs veh, CCNY / RFU, UFL1 / Fold change vs veh, UFL1 / RFU, COG3 / Fold change vs veh, COG3 / RFU, DIAPH2 / Fold change vs veh, DIAPH2 / RFU, SKA2 / Fold change vs veh, SKA2 / RFU, AFF3 / Fold change vs veh, AFF3 / RFU, LMF1 / Fold change vs veh, LMF1 / RFU, IPO11 / Fold change vs veh, IPO11 / RFU, DFFB / Fold change vs veh, DFFB / RFU, FOXP1 / Fold change vs veh, FOXP1 / RFU, CARD8 / Fold change vs veh, CARD8 / RFU, STRN3 / Fold change vs veh, STRN3 / RFU, ADK / Fold change vs veh, ADK / RFU, RASSF2 / Fold change vs veh, RASSF2 / RFU, WIPF1 / Fold change vs veh, WIPF1 / RFU, LARP1B / Fold change vs veh, LARP1B / RFU, RASA1 / Fold change vs veh, RASA1 / RFU, RB1 / Fold change vs veh, RB1 / RFU, PPFIA1 / Fold change vs veh, PPFIA1 / RFU, MAT2A / Fold change vs veh, MAT2A / RFU, CCT5 / Fold change vs veh, CCT5 / RFU, WDR92 / Fold change vs veh, WDR92 / RFU, CUX1 / Fold change vs veh, CUX1 / RFU, TTC7A / Fold change vs veh, TTC7A / RFU, TMEM135 / Fold change vs veh, TMEM135 / RFU, DEPTOR / Fold change vs veh, DEPTOR / RFU, CPM / Fold change vs veh, CPM / RFU, DNAJB6 / Fold change vs veh, DNAJB6 / RFU, CACNA2D3 / Fold change vs veh, CACNA2D3 / RFU, DTX4 / Fold change vs veh, DTX4 / RFU, TFCP2 / Fold change vs veh, TFCP2 / RFU, GMCL1 /// GMCL1P1 / Fold change vs veh, GMCL1 /// GMCL1P1 / RFU, AEBP2 / Fold change vs veh, AEBP2 / RFU, SNHG1 /// SNORD22 /// SNORD25 /// SNORD26 /// SNORD27 /// SNORD28 /// SNORD29 /// SNORD31 / Fold change vs veh, SNHG1 /// SNORD22 /// SNORD25 /// SNORD26 /// SNORD27 /// SNORD28 /// SNORD29 /// SNORD31 / Fold change (Aza/veh), C12orf56 (ProbeSet 11735607_a_at) / Fold change (ACY-1035/veh), C12orf56 (ProbeSet 11735607_a_at) / Fold change (Aza/veh), FGFR1OP (ProbeSet 11751329_s_at) / Fold change (ACY-1035/veh), FGFR1OP (ProbeSet 11751329_s_at) / Fold change (Aza/veh), VPS36 (ProbeSet 11739960_a_at) / Fold change (ACY-1035/veh), VPS36 (ProbeSet 11739960_a_at) / RFU SYPL1 (11715823_x_at) / Fold change /veh SYPL1 (11715823_x_at) / RFU IGFBP7 (11715501_s_at) / Fold change /veh IGFBP7 (11715501_s_at) / RFU REEP3 (11722064_at) / Fold change /veh REEP3 (11722064_at) / RFU IGLL1 (11728026_x_at) / Fold change /veh IGLL1 (11728026_x_at): dose or concentration left out as unconfirmed
Details: MV-4-11 cells, 48 hours

Q: `Nc1ccc(-c2cccs2)cc1NC(=O)c1ccc2c(c1)cc(C1CC1)n2CCN1CCOCC1` [ACY-1035] was tested. Which “RFU CDHR5 (11726645_a_at)” value did it give?
A: Its value is 42.85 RFU.
